How the values were obtained:
adult beagle dogs = test: Dog study, urine phosphate excretion; format: in vivo; details: oral capsules, 2250 mg elemental lanthanum twice daily
Procedure: The doses were administered 30 minutes after provision of food to the animals. At least 14 days washout was allowed between the crossover arms. Plasma was obtained pre-dose and 1.5, 3, 6, 7.5, 9, 12, 24, 36, 48, 60, and 72 hours after dosing and analyzed for lanthanum using ICP-MS. Urine was collected by catheterization before and approximately 24 hours after dosing and creatinine and phosphorus concentrations measured.

[1] = test system: adult Sprague-Dawley rats; test: In vivo study in 5/6 nephrectomized rats, urine phosphorus excretion; set-up: species or system rat; details: 314 mg elemental lanthanum/kg/day oral, 14 days, compared to untreated rats
Procedure: Groups of six adult Sprague-Dawley rats underwent ⅚th nephrectomy in two stages over a period of 2 weeks and were then allowed to recover for a further two weeks prior to being randomized for treatment. The groups received vehicle (0.5% w/v carboxymethyl cellulose), or lanthanum oxycarbonate suspended in vehicle, once daily for 14 days by oral […] (10 ml/kg/day). The dose delivered 314 mg elemental lanthanum/kg/day. Dosing was carried out immediately before the dark (feeding) cycle on each day. Urine samples (24 hours) were collected prior to surgery, prior to the commencement of treatment, and twice weekly during the treatment period. Volume and phosphorus concentration were measured.
Feeding—During the acclimatization and surgery period, the animals were given Teklad phosphate sufficient diet (0.5% Ca, 0.3% P; Teklad No. TD85343), ad libitum. At the beginning of the treatment period, animals were pair fed based upon the average food consumption of the vehicle-treated animals the previous week.
5/6 Nephrectomy—After one week of acclimatization, all animals were subjected to 5/6 nephrectomy surgery. The surgery was performed in two stages. First, the two lower branches of the left renal artery were ligated. One week later, a right nephrectomy was performed. […]

| Molecule | urine phosphate excretion (marker of phosphorous binding) (adult beagle dogs) | phosphorus excretion in urine (marker of dietary phosphorus binding) [1] |
| --- | --- | --- |
| O=C([O-])[O-].[La+3].[OH-] [compound A, LaCO3OH] | reduction of urine phosphate excretion |  |
| O=C([O-])[O-].[La+3].[La+3].[O-2].[O-2] [compound B, La2O2CO3] | reduction of urine phosphate excretion |  |
| O=C([O-])[O-].[La+3].[OH-] [lanthanum carbonate hydroxide] |  | decrease in phosphorus excretion |
| lanthanum oxycarbonate |  | decrease in phosphorus excretion |

Source: patent US20060134225A1, “Phosphate binder with reduced pill burden” (priority 2004, published 2006)
